{
  "source": "ChEMBL document CHEMBL1139247",
  "about": "(Bioorg Med Chem Lett, 2009)",
  "key": {"[1]": {"assay": "Displacement of [3H]gabapentin from alpha2-delta subunit of voltage gated calcium channel in pig brain membrane", "type": "cell membranes, Sus scrofa"}, "[2]": {"assay": "Displacement of [3H]leucine from Large neutral amino acids transporter system L in CHO cells", "type": "cell-based, Cricetulus griseus"}, "Rattus norvegicus [3]": {"test_system": "Rattus norvegicus", "assay": "Reduction in renal clearance in Wistar rat at 3 mg/kg, iv after 5 mins in presence of cimetidine relative to control", "type": "ADME, organism-based", "set-up": "dose 3 mg/kg, route intravenous", "conditions": "in vivo"}, "[4]": {"assay": "Plasma concentration in Sprague-Dawley rat at 30 mg/kg, po after 2 hrs", "type": "ADME, organism-based", "set-up": "dose 30 mg/kg, route oral"}, "Mus musculus [5]": {"test_system": "Mus musculus", "assay": "Anticonvulsant activity in DBA/2 mouse assessed as protection from audiogenically-induced tonic seizures at 30 mg/kg, po after 1 hr", "type": "functional"}, "[6]": {"assay": "Volume of distribution at steady state in rat", "type": "ADME, organism-based", "conditions": "in vivo, read-out: Vdss"}, "[7]": {"assay": "Unbound fraction in rat", "type": "ADME, organism-based", "conditions": "in vivo"}, "Rattus norvegicus [8]": {"test_system": "Rattus norvegicus", "assay": "Reduction in renal clearance in Wistar rat at 3 mg/kg, iv after 5 mins in presence of probenecid relative to control", "type": "ADME, organism-based", "set-up": "dose 3 mg/kg, route intravenous", "conditions": "in vivo"}, "[9]": {"assay": "Bioavailability in rat", "type": "ADME, organism-based", "conditions": "in vivo"}, "Mus musculus [10]": {"test_system": "Mus musculus", "assay": "Anxiolytic activity in DBA/2 mouse assessed as restoration of punished drinking behavior at 30 mg/kg, po relative to pregabalin", "type": "functional"}, "[11]": {"assay": "Clearance in rat", "type": "ADME, organism-based", "conditions": "in vivo"}, "[12]": {"assay": "AUC in rat", "type": "ADME, organism-based", "conditions": "plasma"}, "[13]": {"assay": "Half life in rat plasma", "type": "ADME, organism-based"}, "[14]": {"assay": "Drug level in Sprague-Dawley rat brain at 30 mg/kg, po after 2 hrs"}},
  "data": [
    {"smiles": "NCC1(Cc2nnn[nH]2)CCCCC1", "values": [
      {"measurement": "IC50", "setting": "[1]", "value": 0.1, "unit": "µM"},
      {"measurement": "IC50", "setting": "[2]", "value": "> 10000", "unit": "µM"}
    ]},
    {"smiles": "Cn1nnnc1CC1(CN)CCCCC1", "values": [
      {"measurement": "IC50", "setting": "[1]", "value": "> 10", "unit": "µM"}
    ]},
    {"smiles": "NCC1(Cc2noc(=O)[nH]2)CCCCC1", "values": [
      {"measurement": "reduction in CL_renal", "setting": "Rattus norvegicus [3]", "value": 35, "unit": "%"},
      {"measurement": "concentration at 2 h", "setting": "[4]", "value": 15, "unit": "µg/mL"},
      {"measurement": "Activity", "setting": "Mus musculus [5]", "value": 20, "unit": "%"},
      {"measurement": "Vd", "setting": "[6]", "value": 1.25, "unit": "L/kg"},
      {"measurement": "fraction unbound", "setting": "[7]", "value": "> 0.9"},
      {"measurement": "reduction in CL_renal", "setting": "Rattus norvegicus [8]", "value": 57, "unit": "%"},
      {"measurement": "bioavailability", "setting": "[9]", "value": 97, "unit": "%"},
      {"measurement": "Activity", "setting": "Mus musculus [10]", "value": 11, "unit": "%"},
      {"measurement": "clearance", "setting": "[11]", "value": 1.22, "unit": "L/h/kg"},
      {"measurement": "IC50", "setting": "[2]", "value": "> 10000", "unit": "µM"},
      {"measurement": "AUC", "setting": "[12]", "value": 2.2, "unit": "µg·h/mL"},
      {"measurement": "half-life", "setting": "[13]", "value": 1.6, "unit": "h"}
    ]},
    {"smiles": "NCC1(Cc2noc(=O)[nH]2)CCCCCC1", "values": [
      {"measurement": "IC50", "setting": "[1]", "value": 0.158, "unit": "µM"}
    ]},
    {"smiles": "NCC1(Cc2noc(=O)[nH]2)CCCC1", "values": [
      {"measurement": "IC50", "setting": "[1]", "value": 1.14, "unit": "µM"}
    ]},
    {"smiles": "NCC1(Cc2noc(=O)[nH]2)CCCCCCC1", "values": [
      {"measurement": "IC50", "setting": "[1]", "value": 5.6, "unit": "µM"}
    ]},
    {"smiles": "C[C@@H]1CCC[C@@](CN)(Cc2noc(=O)[nH]2)C1", "values": [
      {"measurement": "IC50", "setting": "[1]", "value": 0.084, "unit": "µM"}
    ]},
    {"smiles": "C[C@@H]1C[C@H](C)C[C@@](CN)(Cc2noc(=O)[nH]2)C1", "values": [
      {"measurement": "IC50", "setting": "[1]", "value": 0.07, "unit": "µM"}
    ]},
    {"smiles": "C[C@@H]1C[C@H](C)C[C@](CN)(Cc2noc(=O)[nH]2)C1", "values": [
      {"measurement": "IC50", "setting": "[1]", "value": "> 10", "unit": "µM"}
    ]},
    {"smiles": "Cn1c(CC2(CN)CCCCC2)noc1=O", "values": [
      {"measurement": "IC50", "setting": "[1]", "value": "> 10", "unit": "µM"}
    ]},
    {"smiles": "CC(C)CC(CN)Cc1noc(=O)[nH]1", "note": "(racemic)", "values": [
      {"measurement": "IC50", "setting": "[1]", "value": 1.5, "unit": "µM"}
    ]},
    {"smiles": "NCC1(CC(=O)O)CCCCC1", "note": "[GABAPENTIN]", "values": [
      {"measurement": "Activity", "setting": "Mus musculus [5]", "value": 100, "unit": "%"},
      {"measurement": "IC50", "setting": "[1]", "value": 0.07, "unit": "µM"},
      {"measurement": "Activity", "setting": "Mus musculus [10]", "value": 60, "unit": "%"},
      {"measurement": "IC50", "setting": "[2]", "value": 30, "unit": "µM"},
      {"measurement": "half-life", "setting": "[13]", "value": 1.5, "unit": "h"}
    ]},
    {"smiles": "CC(C)C[C@H](CN)CC(=O)O", "note": "[PREGABALIN]", "values": [
      {"measurement": "concentration at 2 h", "setting": "[4]", "value": 25.6, "unit": "µg/mL"},
      {"measurement": "Activity", "setting": "Mus musculus [5]", "value": 100, "unit": "%"},
      {"measurement": "Vd", "setting": "[6]", "value": 0.79, "unit": "L/kg"},
      {"measurement": "bioavailability", "setting": "[9]", "value": 83, "unit": "%"},
      {"measurement": "Activity", "setting": "Mus musculus [10]", "value": 100, "unit": "%"},
      {"measurement": "clearance", "setting": "[11]", "value": 0.174, "unit": "L/h/kg"},
      {"measurement": "IC50", "setting": "[2]", "value": 158, "unit": "µM"},
      {"measurement": "concentration at 2 h", "setting": "[14]", "value": 7.36, "unit": "µg/mL"},
      {"measurement": "AUC", "setting": "[12]", "value": 14.8, "unit": "µg·h/mL"},
      {"measurement": "half-life", "setting": "[13]", "value": 2.7, "unit": "h"}
    ]}
  ]
}
